Measurements reported in the supplement of paper PMC10307832.

Experiments:
Assay in all cases: relative viability (nuclei count vs DMSO), 5 days (fraction); higher = more cells survive
Tosedostat + OSI-027 = compound: CC(C)C[C@@H](C(=O)N[C@H](C(=O)OC1CCCC1)c1ccccc1)[C@H](O)C(=O)NO [Tosedostat] + COc1cccc2cc(-c3nc([C@H]4CC[C@H](C(=O)O)CC4)n4ncnc(N)c34)[nH]c12 [OSI-027] (partner 0.5 µM)
In short: (§1)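 Dosing by pin tool came one day after lung cancer cell lines were seeded in 1536-well plates, using either one drug or a fixed anchor-drug dose plus five library-drug doses (not always all listed) in √10 steps. After 5 days, nuclei were counted on 4× images. Relative viability is treated-well nuclei count divided by vehicle-well nuclei count, and values are medians of duplicate plates.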

[1] = compound: CC1=NN=C(O1)C2=NN=C(C=C2)N3CCC(CC3)OC4=C(C=CC(=C4)F)Cl + CCNC(=O)c1noc(-c2cc(C(C)C)c(O)cc2O)c1-c1ccc(CN2CCOCC2)cc1 [Luminespib] (partner 0.01 µM)
In short: as §1

[2] = compound: CC1=NN=C(O1)C2=NN=C(C=C2)N3CCC(CC3)OC4=C(C=CC(=C4)F)Cl + CS(=O)(=O)CCNCc1ccc(-c2ccc3ncnc(Nc4ccc(OCc5cccc(F)c5)c(Cl)c4)c3c2)o1 [Lapatinib] (partner 2 µM)
In short: as §1

[3] = compound: CC1=NN=C(O1)C2=NN=C(C=C2)N3CCC(CC3)OC4=C(C=CC(=C4)F)Cl + NC(=O)Nc1cc(-c2cccc(F)c2)sc1C(=O)N[C@H]1CCCNC1 [AZD7762] (partner 0.2 µM)
In short: as §1

Cell Line	relative viability (Tosedostat + OSI-027; first compound 0.02 µM)	relative viability (Tosedostat + OSI-027; first compound 0.06325 µM)	relative viability (Tosedostat + OSI-027; first compound 0.2 µM)	relative viability (Tosedostat + OSI-027; first compound 0.6325 µM)	relative viability (Tosedostat + OSI-027; first compound 2 µM)	relative viability ([1]; first compound 0.253 µM)	relative viability ([1]; first compound 0.8 µM)	relative viability ([1]; first compound 2.53 µM)	relative viability ([1]; first compound 8 µM)	relative viability ([2]; first compound 0.253 µM)	relative viability ([2]; first compound 0.8 µM)	relative viability ([2]; first compound 2.53 µM)	relative viability ([2]; first compound 8 µM)	relative viability ([3]; first compound 0.253 µM)	relative viability ([3]; first compound 0.8 µM)	relative viability ([3]; first compound 2.53 µM)	relative viability ([3]; first compound 8 µM)
201T	0.761	0.818	0.755	0.949	0.718	0.486	0.589	0.499	0.566	0.392	0.471	0.524	0.435	0.447	0.481	0.531	0.505
A-427	0.437	0.548	0.534	0.484	0.406	0.882		0.708	0.732	0.818		0.825	0.54	0.726	0.526	0.824	0.724
ABC-1	0.588	0.546	0.423	0.391	0.406	0.35	0.362	0.207	0.262	1.13	1.07	0.92	0.887	0.852	0.712	0.597	0.45
BEN	0.298	0.292	0.286	0.31	0.326	0.47	0.459	0.312	0.18	0.607	0.729	0.743	0.61	0.681	0.752	0.878	0.729
CAL-12T	0.9	0.769	0.76	0.572	0.457	0.362	0.342	0.501	0.415	0.59	0.565	0.579	0.425	0.637	0.586	0.606	0.479
EKVX	0.718	0.764	0.673	0.696	0.748	0.447	0.362	0.331	0.32	0.175	0.178	0.187	0.193	0.517	0.434	0.465	0.535
EMC-BAC-2	0.4	0.405	0.412	0.416	0.319	0.987	0.977	1.03	0.917	0.837	0.843	0.854	0.647	1.07	0.929	1.1	1.03
EPLC-272H	0.281	0.265	0.301	0.263	0.24	0.226	0.167	0.313	0.267	0.809		1.01	0.814	0.236	0.369	0.268	0.197
H3255	0.67	0.522	0.603	0.513	0.509	0.82	0.737	0.727	0.66	0.24	0.193	0.266	0.269	0.633	0.663	0.628	0.639
HARA	0.695	0.492	0.421	0.447	0.382	0.234	0.204	0.202	0.184	0.397	0.363	0.403	0.285	0.416	0.305	0.387	0.337
HCC-15	0.751	0.718	0.579	0.467	0.46	0.342	0.303	0.294	0.286	0.418	0.408	0.415	0.414	0.733	0.571	0.639	0.608
HCC-44	0.538	0.592	0.384	0.513	0.374	0.739	0.812	0.725	0.731	0.324	0.439	0.383	0.43	0.388	0.609	0.495	0.452
HCC-827	0.701	0.728	0.773	0.526	0.644	0.428	0.228	0.349	0.339	0.201	0.197	0.176	0.2	0.299	0.158	0.213	0.2
HOP-62	0.836	0.813	0.885	0.671	0.664	0.63	0.638	0.697	0.634	0.799		0.523	0.684	0.556	0.22	0.452	0.228
LC-2-ad	1.03	0.756	0.758	0.698	0.645	0.567	0.488	0.544	0.483	0.291	0.271	0.335	0.262	0.394	0.391	0.398	0.379
LCLC-97TM1	0.603	0.451	0.442	0.418	0.497	0.394	0.364	0.336	0.346	0.827		0.553	0.687	0.264		0.235	0.205
